The target in one assay is Avi-tagged FL MALT-1 (Homo sapiens (Human), UniProt Q9UDY8). Put plainly: MALT-1 Fluorogenic Peptide Cleavage Assay (MALT1 inhibition assay). It is filed as biochemical. As to conditions: Ac-LRSR-AMC peptide substrate, 30 min pre-incubation, 90 min reaction at room temperature. The procedure, abridged:
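Cleavage of Ac-LRSR-AMC, read as fluorescence at 342/441 nm after 90 min at room temperature, with substrate working stocks of 50 μM (Km) or 280 μM (10×Km). Enzyme, Avi-tagged full-length MALT-1 (40 nM stock), was first pre-incubated 30 min with compound in citrate/HEPES pH 6.89 buffer with TCEP, EDTA, CHAPS and 2% DMSO; IC50 fitted from normalised % inhibition.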

Assay [1] relates to NF-kB reporter in Jurkat cells. Put plainly: NF-kB reporter assay in Jurkat cells stimulated with aCD3/aCD28/PMA. The settings on record: Jurkat cells, 1 hr compound pre-incubation, aCD3/aCD28/PMA stimulation 4 hr, One-Glo readout, read-out: NF-kB Reporter Assay IC50. Type of assay: cell-based. In short, it runs like this:
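Luminescence (One-Glo) from the NF-kB reporter yielded IC50 values. Stimulation lasted 4 h at 37° C with aCD3, aCD28 and PMA (final 5, 5 and 0.03 […]), after 1 h compound pre-exposure of 25,000 Jurkat cells per well in serum-free RPMI.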
On the technique in general: A reporter such as luciferase makes a cellular process visible.

Read-outs that look alike come from different tables or passages of the source. Where only a bound is given, the exact number is not on record here.

Chain of Avi-tagged FL MALT-1 (Q9UDY8 whole entry): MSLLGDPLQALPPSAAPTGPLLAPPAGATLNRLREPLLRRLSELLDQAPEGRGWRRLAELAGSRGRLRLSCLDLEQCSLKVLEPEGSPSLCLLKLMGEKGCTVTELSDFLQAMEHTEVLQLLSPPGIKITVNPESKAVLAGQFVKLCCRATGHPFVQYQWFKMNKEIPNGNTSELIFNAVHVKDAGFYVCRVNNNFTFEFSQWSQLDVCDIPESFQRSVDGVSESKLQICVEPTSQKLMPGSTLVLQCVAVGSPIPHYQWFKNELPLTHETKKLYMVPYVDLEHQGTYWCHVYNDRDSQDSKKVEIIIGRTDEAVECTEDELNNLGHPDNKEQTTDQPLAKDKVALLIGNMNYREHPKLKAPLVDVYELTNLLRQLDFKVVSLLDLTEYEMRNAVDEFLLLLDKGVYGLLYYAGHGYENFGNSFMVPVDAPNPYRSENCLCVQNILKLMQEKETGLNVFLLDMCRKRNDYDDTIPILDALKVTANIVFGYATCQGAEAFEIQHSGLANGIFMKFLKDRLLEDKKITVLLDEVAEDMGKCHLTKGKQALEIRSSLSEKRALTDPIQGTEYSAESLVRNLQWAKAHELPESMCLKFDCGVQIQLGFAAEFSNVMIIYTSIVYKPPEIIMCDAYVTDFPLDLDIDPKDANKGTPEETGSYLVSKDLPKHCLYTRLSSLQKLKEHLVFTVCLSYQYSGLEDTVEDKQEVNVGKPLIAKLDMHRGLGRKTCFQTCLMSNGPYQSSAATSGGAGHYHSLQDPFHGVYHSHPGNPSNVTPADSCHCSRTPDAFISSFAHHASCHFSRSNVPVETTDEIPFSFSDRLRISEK

The IC50 is the point on the concentration scale where inhibition reaches its midpoint. In the case of `COc1ccc2cnn(C)c2c1NS(=O)(=O)c1cnn(-c2cnn3c2COCC3)c1` [Compound I-474, N-(6-methoxy-1-methylindazol-7-yl)-1-{4H,6H,7H-pyrazolo[3,2-c][1,4]oxazin-3-yl}pyrazole-4-sulfonamide], the IC50 against Avi-tagged FL MALT-1 lay in the range of 1000 to 2500 nM; in assay [1] (Homo sapiens) it was 400 to 1000 nM.

Take `COc1ccc2cnn(C)c2c1NS(=O)(=O)c1cnn(-c2cnc3n2CCOC3)c1` [Compound I-475, 1-(5,6-dihydro-8H-imidazo[2,1-c][1,4]oxazin-3-yl)-N-(6-methoxy-1-methyl-1H-indazol-7-yl)-1H-pyrazole-4-sulfonamide]: the IC50 (on Avi-tagged FL MALT-1; in assay [1] (Homo sapiens)) was above 2500 nM each time.

Take `[2H]C([2H])([2H])Oc1ccc2cnn(C([2H])([2H])[2H])c2c1NS(=O)(=O)c1cnn(-c2cc(C(F)(F)F)ccn2)c1` [Compound I-476, N-(6-(methoxy-d3)-1-(methyl-d3)-1H-indazol-7-yl)-1-(4-(trifluoromethyl)pyridin-2-yl)-1H-pyrazole-4-sulfonamide]: the results for the IC50 (on Avi-tagged FL MALT-1; in assay [1] (Homo sapiens)) were at most 400 nM and below 400 nM, respectively.

Take `Cn1ncc2cccc(NS(=O)(=O)c3cnn(-c4cc(C5(O)CC(C)(C)C5)ccn4)c3)c21` [Compound I-477, 1-(4-(1-hydroxy-3,3-dimethylcyclobutyl)pyridin-2-yl)-N-(1-methyl-1H-indazol-7-yl)-1H-pyrazole-4-sulfonamide]: the IC50 on Avi-tagged FL MALT-1 was above 2500 nM; in assay [1] (Homo sapiens), below 400 nM.

As to `COC1(c2ccnc(-n3cc(S(=O)(=O)Nc4cccc5cnn(C)c45)cn3)c2)CC(C)(C)C1` [Compound I-478, 1-(4-(1-methoxy-3,3-dimethylcyclobutyl)pyridin-2-yl)-N-(1-methyl-1H-indazol-7-yl)-1H-pyrazole-4-sulfonamide], the IC50 at Avi-tagged FL MALT-1 is above 2500 nM; in assay [1] (Homo sapiens) it was below 400 nM.

With `COc1ccc2cnn(C)c2c1NS(=O)(=O)c1cnn(-c2cc(C3(O)CC(C)(C)C3)ccn2)c1` [Compound I-479], the IC50 at Avi-tagged FL MALT-1 is above 2500 nM; in assay [1] (Homo sapiens), below 400 nM.

With `COc1ccc2cnn(C)c2c1NS(=O)(=O)c1cnn(-c2cc(C3(OC)CC(C)(C)C3)ccn2)c1` [Compound I-480], the IC50 on Avi-tagged FL MALT-1 is above 2500 nM; in assay [1] (Homo sapiens), below 400 nM.

With `COCC(C)(C)c1ccnc(-n2cc(S(=O)(=O)Nc3cccc4cnn(C)c34)cn2)c1` [Compound I-481, 1-(4-(1-methoxy-2-methylpropan-2-yl)pyridin-2-yl)-N-(1-methyl-1H-indazol-7-yl)-1H-pyrazole-4-sulfonamide], the IC50 was above 2500 nM on Avi-tagged FL MALT-1 and below 400 nM in assay [1] (Homo sapiens).

`COCC(C)(C)c1ccnc(-n2cc(S(=O)(=O)Nc3c(OC)ccc4cnn(C)c34)cn2)c1` [Compound I-482, N-(6-methoxy-1-methyl-1H-indazol-7-yl)-1-(4-(1-methoxy-2-methylpropan-2-yl)pyridin-2-yl)-1H-pyrazole-4-sulfonamide]: the IC50 against Avi-tagged FL MALT-1 is 400 to 1000 nM; in assay [1] (Homo sapiens), below 400 nM.

On to `Cn1ncc2cccc(NS(=O)(=O)c3cnn(-c4cc(C5(C#N)COC5)ccn4)c3)c21` [Compound I-483], for which the half-inhibitory concentration (IC50) against Avi-tagged FL MALT-1 was above 2500 nM; in assay [1] (Homo sapiens), below 400 nM.

With `COC1(c2ccnc(-n3cc(S(=O)(=O)Nc4cccc5cnn(C)c45)cn3)c2)CC2(CC2)C1` [Compound I-484, 1-(4-(5-methoxyspiro[2.3]hexan-5-yl)pyridin-2-yl)-N-(1-methyl-1H-indazol-7-yl)-1H-pyrazole-4-sulfonamide], the IC50 against Avi-tagged FL MALT-1 is above 2500 nM; in assay [1] (Homo sapiens), below 400 nM.

Turning to `COc1ccc2cnn(C)c2c1NS(=O)(=O)c1cnn(-c2cc(C3(OC)CC4(CC4)C3)ccn2)c1` [Compound I-485, N-(6-methoxy-1-methylindazol-7-yl)-1-(4-{5-methoxyspiro [2.3]hexan-5-yl}pyridin-2-yl) pyrazole-4-sulfonamide], the IC50 was 400 to 1000 nM on Avi-tagged FL MALT-1 and below 400 nM in assay [1] (Homo sapiens).

In the case of “N-(6-Methoxy-1-Methyl-1H-Indazol-7-yl)-1-(4-(Trifluoromethyl)Pyridin-2-yl)-1H-Pyrazole-4-Sulfonamide [Compound I-5]”, the values for the IC50 (against Avi-tagged FL MALT-1; in assay [1]) were at most 400 nM and below 400 nM, respectively.

The record behind these values is patent US20240150321A1, “PYRAZOLYLSULFONAMIDE COMPOUNDS AND THEIR USE IN THERAPY” (HOTSPOT THERAPEUTICS, INC., priority 2022, published 2024).
